PMC5118987 (Antimicrobial Agents and Chemotherapy, 2016)

Columns and labels:
in vitro [1] = conditions: human
in vitro [2] = conditions: human; remark: listed apart in the source
HCV 2a Replicon = assay: Anti-HCV activity, HCV 2a replicon; conditions: Hepatitis C virus, Huh-7
HCV 1b Replicon = assay: Anti-HCV activity, HCV 1b replicon; conditions: Hepatitis C virus, Huh-7
Influenza A/PC/1/73 = assay: microbe, parasite or virus in culture; assay type: cell-based; conditions: NHBE
Influenza B/LEE/40 = assay: microbe, parasite or virus in culture; assay type: cell-based; conditions: NHBE
in vitro [3] = conditions: human; remark: listed apart in the source
RSV strain A2 = assay: microbe, parasite or virus in culture; assay type: cell-based, respiratory syncytial virus; conditions: read-out: EC50
in vitro [4] = conditions: human; remark: listed apart in the source
[5] = system: HRV (mixture of HRV1A, HRV14, HRV16); assay: microbe, parasite or virus in culture; assay type: cell-based; conditions: Human rhinovirus sp., H1-HeLa
HIV-2 CDC 310319 = assay: Antiviral assay against HIV-2 isolate in fresh human PBMCs (RT endpoint); conditions: Human immunodeficiency virus 2, PBMC
HIV-1 clinical isolates = assay: Antiviral assay against HIV-1 clinical isolates in fresh human PBMCs (RT endpoint)

C[C@@]1(O)[C@H](O)[C@@H](CO)O[C@H]1n1cnc2c(N)ncnc21 [Compound 2-CMeA, 2′-C-methyladenosine]
CC50 (in vitro [1]): 42200 nM
CC50 (in vitro [2]): > 44000 nM
EC50 (HCV 2a Replicon): 301 nM
EC50 (HCV 1b Replicon): 112 nM

Nc1nc2c(ncn2[C@@H]2O[C@H](CO)[C@@H](O)[C@H]2F)c(=O)[nH]1 [2'-FDG, 2′-fluoro-2′-deoxyguanosine]
EC50 (Influenza A/PC/1/73): 6000 nM
EC50 (Influenza B/LEE/40): 14000 nM
CC50 (in vitro [3]): > 100000 nM

O=C(NC1CC1)c1cc2c(s1)-c1ccccc1N(C(=O)c1ccc(NC(=O)c3ccccc3-c3ccccc3)cc1)CC2 [YM-53403]
EC50 (RSV strain A2): 350 nM
CC50 (HEp-2 Cells): > 50000 nM

CCOC(=O)/C=C/[C@H](C[C@@H]1CCNC1=O)NC(=O)[C@@H](CC(=O)[C@@H](NC(=O)c1cc(C)on1)C(C)C)Cc1ccc(F)cc1 [Rupintrivir, rupintrivir]
CC50 (in vitro [4]): > 10000 nM
EC50 [5]: 30 nM

Cc1cn([C@H]2C[C@H](N=[N+]=[N-])[C@@H](CO)O2)c(=O)[nH]c1=O [AZT, zidovudine]
EC50 (HIV-2 CDC 310319): 9.3 ± 4.6 nM
EC50 (HIV-1 clinical isolates; Human immunodeficiency virus 1, BAL, PBMC, HIV-1 subtype B isolate BaL, human PBMCs): 3.8 ± 0.6 nM
EC50 (HIV-1 clinical isolates; Human immunodeficiency virus 1, PBMC, HIV-1 subtype A isolate 92RW016, human PBMCs): 2 ± 0.3 nM
EC50 (HIV-1 clinical isolates; Human immunodeficiency virus 1, PBMC, HIV-1 subtype A isolate 92UG037, human PBMCs): 11.2 ± 3.7 nM
EC50 (HIV-1 clinical isolates; Human immunodeficiency virus 1, PBMC, HIV-1 subtype B isolate 89BZ_167, human PBMCs): 3.6 ± 0.8 nM
EC50 (HIV-1 clinical isolates; Human immunodeficiency virus 1, PBMC, HIV-1 subtype B isolate 91US001, human PBMCs): 5.5 ± 2.5 nM
EC50 (HIV-1 clinical isolates; Human immunodeficiency virus 1, PBMC, HIV-1 subtype B isolate 91US004, human PBMCs): 2.6 ± 1.5 nM
EC50 (HIV-1 clinical isolates; Human immunodeficiency virus 1, PBMC, HIV-1 subtype C isolate 93IN905, human PBMCs): 1.6 ± 0.7 nM
EC50 (HIV-1 clinical isolates; Human immunodeficiency virus 1, PBMC, HIV-1 subtype C isolate 98US_MSC5016, human PBMCs): 7.9 ± 4.4 nM
EC50 (HIV-1 clinical isolates; Human immunodeficiency virus 1, PBMC, HIV-1 subtype D isolate 98UG_57128, human PBMCs): 0.07 ± 0.03 nM
EC50 (HIV-1 clinical isolates; Human immunodeficiency virus 1, PBMC, HIV-1 subtype E isolate 96TH_M02138, human PBMCs): 5.5 ± 0.4 nM
EC50 (HIV-1 clinical isolates; Human immunodeficiency virus 1, PBMC, HIV-1 subtype E isolate 96TH_NI1046, human PBMCs): 2.3 ± 0.7 nM
EC50 (HIV-1 clinical isolates; Human immunodeficiency virus 1, PBMC, HIV-1 subtype F isolate 93BR020, human PBMCs): 8.1 ± 7.1 nM
